Assay results from patent US9624167B2, “N-(4-hydroxy-4-methyl-cyclohexyl)-4-phenyl-benzenesulfonamides and N-(4-hydroxy-4-methyl-cyclohexyl)-4-(2-pyridyl)benzenesulfonamides and their therapeutic use” (PIMCO 2664 LIMITED, priority 2013, dated 2017).
≈ marks a conversion by molar mass, not a printed value.

Assays:
[1] = Aqueous (FaSSIF) solubility; type: physicochemical; details: fasted state simulated intestinal fluid (FaSSIF); for solubility at 16 h: kinetic from dmso stock, pH 6.5, three replicates, read-out: Solubility (1); for solubility: pH 6.8, two replicates, read-out: Solubility (2)
Experimental: Solubility was measured by equilibration of the compound in fasted state simulated intestinal fluid (FaSSIF) and quantified by high-performance liquid chromatography (HPLC).
Aqueous solubility was measured by equilibration of compounds with fasted state simulated intestinal fluid (FaSSIF) and quantified spectrophotometrically.
FaSSIF was prepared as described below:
Preparation of blank FaSSIF: 0.21 g of sodium hydroxide (NaOH) pellets, 1.97 g of dihydrogen sodium phosphate (NaH2PO4.2H2O) and 3.09 g of sodium chloride (NaCl) were dissolved in 400 mL of deionised water. […]
Preparation of FaSSIF: 0.056 g of SIF Powder (containing sodium taurocholate and lecithin) (Phares AG) was dissolved in 25 mL of blank FaSSIF and stirred until the powder was completely dissolved. The solution was allowed to stand for 2 hours during which it became opalescent; it was used within 24 hours. The final solution composition was characterised as follows: • Sodium taurocholate: 3 mM • Lecithin: 0.75 mM • Osmolarity: 270±10 mOsmol • pH: 6.5
The optical density was measured at the end of the incubation period for test compounds and a reference used to determine solubility. In brief, two samples were prepared for each determination: a reference sample consisting of a stock solution of test compound in DMSO diluted in system solution (a phosphate free, low absorption buffer) and propanol; and a test sample (prepared in triplicate) consisting of 0.5 mL FaSSIF spiked with test compound at 0.2 mM. Each sample was incubated at room temperature for 16 hours with constant shaking at 250 rpm. At the end of the incubation period, 0.3 mL of each sample was filtered through a pION filter plate (PION, Woburn Mass.), diluted 1:1 with propanol and scanned using UV spectrophotometry at λmax ([…]) using a Spectra Max Plus—Version 2.1000 (Molecular Devices, Sunnyvale, Calif.), with μSOL Explorer solubility determination software (pION, Woburn, Mass.).
FaSSIF solubility was calculated using the following formula:
[formula] wherein: • “OD” is the optical density; • “Cr” is the concentration of the reference (33.4 μM); and • “molecular weight” is for the test compound (e.g., 381.44 for ABD735).

[2] = Rodent pharmacokinetics study; type: in vivo, Sprague-Dawley rats; details: rat; for half-life: male, Sprague-Dawley, plasma, elimination phase half-life; for i.v. AUC: intravenous 1 mg/kg; for Bioavail, F: tentative oral bioavailability, F=AUC(p.o.)×Dose(i.v.)/AUC(i.v.)×Dose(p.o.); for p.o. AUC: oral 5 mg/kg in 0.5% CMC/0.1% Tween-80 (HMC-C-01-A in 2% dimethylacetamide/20% hydroxypropyl-β-cyclodextrin)
Experimental: Absorption and metabolic stability were studied using an in vivo pharmacokinetics assay.
Three male Sprague-Dawley rats, aged 8-12 weeks, were dosed with test compounds administered either orally or intravenously (dose level of 1 mg/kg body weight intravenous or 5 mg/kg body weight orally). Test compounds were formulated in 0.5% carboxymethylcellulose (CMC)/0.1% Tween-80 for administration via the oral route, or in 5% DMSO/10% solutol in saline for administration via the intravenous route. For compound HMC-C-01-A the oral administration was formulated in 2% dimethylacetamide/20% hydroxypropyl-β-cyclodextrin in water. Animals were given free access to food throughout the study except for fasting overnight and until 2 hours post dose on the day of dosing.
Blood samples were taken from the retro-orbital plexus at the following time points and placed in microtubes containing 20% K2EDTA solution:
Oral Dosing: predose; 0.25, 0.5, 1, 2, 4, 6, 8, and 24 hours post dose.
Intravenous Dosing: predose; 0.08, 0.25, 0.5, 1, 2, 4, 8, and 24 hours post dose.
Blood samples were centrifuged to obtain plasma, which was transferred to a separate container and frozen at −20° C.
For analysis, samples were thawed at room temperature and prepared by protein precipitation with acetonitrile spiked with internal standard (500 ng/mL glipizide) in the ratio 1:4 with plasma. The samples were then vortexed for 5 minutes and centrifuged for 10 minutes at 20,600×g at 4° C. 100 μL of the supernatant was collected for analysis. The standard samples were prepared similarly, after spiking blank rat plasma samples with 10 μL of analyte.
The pharmacokinetic parameters for the test compounds were calculated by Phoenix WinNonlin version 6.3 (Pharsight Corp, CA) using standard non-compartmental methods. Peak plasma concentrations (Cmax) and time of the peak plasma concentration (Tmax) were the observed values. The area under the plasma concentration-time curve (AUC) was determined by use of the linear trapezoidal rule up to the last measurable concentration (AUClast) and thereafter by extrapolation of the terminal elimination phase to infinity (AUCinf). The terminal elimination rate constant (kel) was determined by regression analysis of the linear terminal portion of the log plasma concentration-time curve. The elimination phase half-life (t1/2) was calculated as 0.693/kel.

## Cc1cc(S(=O)(=O)NC2CCC(C)(O)CC2)ccc1-c1ccc(F)cc1F (single isomer, unassigned) [REF001, reference compound]
[1]
  solubility at 16 h: 50 µg/mL (≈ 126 µM)
[2]
  half-life: 7.2 h
  i.v. AUC: 963 ng·min/mL
  Bioavail, F: 50%

## Cc1cc(S(=O)(=O)N[C@H]2CC[C@H](O)CC2)ccc1-c1ccc(F)cc1F [ABD735]
[1]
  solubility at 16 h: 20 µg/mL (≈ 52.4 µM)
[2]
  half-life: 3.8 h
  i.v. AUC: 1081 ng·min/mL
  Bioavail, F: 83%

## O=S(=O)(N[C@H]1CC[C@H](O)CC1)c1ccc(-c2ncc(Cl)cc2Cl)cc1 [ABD836, reference compound]
[1]
  solubility at 16 h: 30 µg/mL (≈ 74.8 µM)
[2]
  half-life: 5.3 h
  i.v. AUC: 2142 ng·min/mL
  p.o. AUC: 98.8 ng·h/mL
  Bioavail, F: 55%

## C[C@]1(O)CC[C@@H](NS(=O)(=O)c2ccc(-c3ccc(F)cc3F)cc2)CC1 [ABD899, reference compound]
[1]
  solubility at 16 h: 60 µg/mL (≈ 157 µM)
  solubility: 130 µg/mL (≈ 341 µM)
[2]
  half-life: 10.8 h
  i.v. AUC: 2133 ng·min/mL
  Bioavail, F: 50%

## C[C@]1(O)CC[C@H](NS(=O)(=O)c2ccc(-c3ccc(F)cc3F)cc2)CC1 [ABD900, reference compound]
[1]
  solubility: 120 µg/mL (≈ 315 µM)

## C[C@]1(O)CC[C@H](NS(=O)(=O)c2ccc(-c3ccc(Cl)cc3C#N)cc2)CC1 [HMC-C-01-A, 4′-Chloro-2′-cyano-N-((1r,4r)-4-hydroxy-4-methylcyclohexyl)biphenyl-4-sulfonamide]
[1]
  solubility at 16 h: 60 µg/mL (≈ 148 µM)
[2]
  half-life: 6.2 h
  i.v. AUC: 900 ng·min/mL
  p.o. AUC: 66.7 ng·h/mL
  Bioavail, F: 89%

## C[C@]1(O)CC[C@@H](NS(=O)(=O)c2ccc(-c3ccc(Cl)cc3C#N)cc2)CC1 [HMC-C-01-B, 4′-Chloro-2′-cyano-N-((1s,4s)-4-hydroxy-4-methylcyclohexyl)-[1,1′-biphenyl]-4-sulfonamide]
[1]
  solubility: 80 µg/mL (≈ 198 µM)
[2]
  half-life: 5.7 h
  i.v. AUC: 1539 ng·min/mL
  p.o. AUC: 85.3 ng·h/mL
  Bioavail, F: 67%

## C[C@]1(O)CC[C@H](NS(=O)(=O)c2ccc(-c3ccc(F)cc3C(F)(F)F)cc2)CC1 [HMC-C-02-A, 4′-Fluoro-N-((1r,4r)-4-hydroxy-4-methylcyclohexyl)-2′-(trifluoromethyl)biphenyl-4-sulfonamide]
[1]
  solubility at 16 h: 40 µg/mL (≈ 92.7 µM)
[2]
  half-life: 3.2 h
  i.v. AUC: 546 ng·min/mL
  p.o. AUC: 17.8 ng·h/mL
  Bioavail, F: 39%

## C[C@]1(O)CC[C@@H](NS(=O)(=O)c2ccc(-c3ccc(F)cc3C(F)(F)F)cc2)CC1 [HMC-C-02-B, 4′-Fluoro-N-((1s,4s)-4-hydroxy-4-methylcyclohexyl)-2′-(trifluoromethyl)-[1,1′-biphenyl]-4-sulfonamide]
[1]
  solubility: 70 µg/mL (≈ 162 µM)

## C[C@]1(O)CC[C@H](NS(=O)(=O)c2ccc(-c3c(F)cc(F)cc3F)cc2)CC1 [HMC-C-03-A, 2′,4′,6′-Trifluoro-N-((1r,4r)-4-hydroxy-4-methylcyclohexyl)biphenyl-4-sulfonamide]
[1]
  solubility at 16 h: 30 µg/mL (≈ 75.1 µM)
[2]
  half-life: 2.4 h
  i.v. AUC: 1427 ng·min/mL
  p.o. AUC: 65.2 ng·h/mL
  Bioavail, F: 55%

## C[C@]1(O)CC[C@@H](NS(=O)(=O)c2ccc(-c3c(F)cc(F)cc3F)cc2)CC1 [HMC-C-03-B, 2′,4′,6′-Trifluoro-N-((1s,4s)-4-hydroxy-4-methylcyclohexyl)-[1,1′-biphenyl]-4-sulfonamide]
[1]
  solubility: 150 µg/mL (≈ 376 µM)
[2]
  half-life: 8.3 h
  p.o. AUC: 157 ng·h/mL
  Bioavail, F: 116%

## C[C@]1(O)CC[C@H](NS(=O)(=O)c2ccc(-c3ccc(F)cc3F)c(F)c2)CC1 [HMC-C-04-A, 2,2′,4′-Trifluoro-N-((1r,4r)-4-hydroxy-4-methylcyclohexyl)-[1,1′-biphenyl]-4-sulfonamide]
[1]
  solubility: 80 µg/mL (≈ 200 µM)

## C[C@]1(O)CC[C@@H](NS(=O)(=O)c2ccc(-c3ccc(F)cc3F)c(F)c2)CC1 [HMC-C-04-B, 2,2′,4′-Trifluoro-N-((1s,4s)-4-hydroxy-4-methylcyclohexyl)-[1,1′-biphenyl]-4-sulfonamide]
[1]
  solubility: 130 µg/mL (≈ 325 µM)
[2]
  half-life: 5.5 h
  p.o. AUC: 156 ng·h/mL
  Bioavail, F: 59%

## C[C@]1(O)CC[C@H](NS(=O)(=O)c2ccc(-c3ncc(F)cc3F)c(F)c2)CC1 [HMC-N-01-A, 4-(3,5-Difluoropyridin-2-yl)-3-fluoro-N-((1r,4r)-4-hydroxy-4-methylcyclohexyl)benzenesulfonamide]
[1]
  solubility at 16 h: 30 µg/mL (≈ 74.9 µM)
[2]
  half-life: 13.4 h
  i.v. AUC: 740 ng·min/mL
  p.o. AUC: 23.5 ng·h/mL
  Bioavail, F: 64%

## C[C@]1(O)CC[C@@H](NS(=O)(=O)c2ccc(-c3ncc(F)cc3F)c(F)c2)CC1 [HMC-N-01-B, 4-(3,5-Difluoropyridin-2-yl)-3-fluoro-N-((1s,4s)-4-hydroxy-4-methylcyclohexyl)benzenesulfonamide]
[1]
  solubility: 120 µg/mL (≈ 300 µM)
[2]
  half-life: 9.1 h
  i.v. AUC: 2824 ng·min/mL
  p.o. AUC: 141 ng·h/mL
  Bioavail, F: 60%

## C[C@]1(O)CC[C@H](NS(=O)(=O)c2ccc(-c3ncc(F)cc3F)cc2)CC1 [HMC-N-02-A, 4-(3,5-Difluoropyridin-2-yl)-N-((1r,4r)-4-hydroxy-4-methylcyclohexyl)benzenesulfonamide]
[1]
  solubility at 16 h: 20 µg/mL (≈ 52.3 µM)
[2]
  half-life: 6.3 h
  p.o. AUC: 55 ng·h/mL
  Bioavail, F: 43%

## C[C@]1(O)CC[C@@H](NS(=O)(=O)c2ccc(-c3ncc(F)cc3F)cc2)CC1 [HMC-N-02-B, 4-(3,5-Difluoropyridin-2-yl)-N-((1s,4s)-4-hydroxy-4-methylcyclohexyl)benzenesulfonamide]
[1]
  solubility: 120 µg/mL (≈ 314 µM)
[2]
  half-life: 6 h
  i.v. AUC: 1931 ng·min/mL
  p.o. AUC: 107 ng·h/mL
  Bioavail, F: 66%

## C[C@]1(O)CC[C@H](NS(=O)(=O)c2ccc(-c3ncc(Cl)cc3Cl)cc2)CC1 [HMC-N-03-A, 4-(3,5-Dichloropyridin-2-yl)-N-((1r,4r)-4-hydroxy-4-methylcyclohexyl)benzenesulfonamide]
[1]
  solubility at 16 h: > 80 µg/mL
[2]
  half-life: 3.1 h
  p.o. AUC: 16 ng·h/mL
  Bioavail, F: 8%

## C[C@]1(O)CC[C@@H](NS(=O)(=O)c2ccc(-c3ncc(Cl)cc3Cl)cc2)CC1 [HMC-N-03-B, 4-(3,5-Dichloropyridin-2-yl)-N-((1s,4s)-4-hydroxy-4-methylcyclohexyl)benzenesulfonamide]
[1]
  solubility: 100 µg/mL (≈ 241 µM)
[2]
  half-life: 7.4 h
  p.o. AUC: 193 ng·h/mL
  Bioavail, F: 84%

## C[C@]1(O)CC[C@H](NS(=O)(=O)c2ccc(-c3ncc(Cl)cc3Cl)c(F)c2)CC1 [HMC-N-04-A, 4-(3,5-Dichloropyridin-2-yl)-3-fluoro-N-((1r,4r)-4-hydroxy-4-methylcyclohexyl)benzenesulfonamide]
[1]
  solubility at 16 h: 60 µg/mL (≈ 138 µM)
[2]
  half-life: 2.9 h
  i.v. AUC: 1279 ng·min/mL
  p.o. AUC: 70 ng·h/mL
  Bioavail, F: 66%
